Laboratory results taken from US8524755B2 (priority 2009, dated 2013).

What was measured:
I2 = assay: Binding I2 (aa); set-up: species or system rat
Procedure: (§1) Radioligand binding assay methods utilized to measure the activity of compounds of the invention will be familiar to those skilled in the art. In each assay case, the assay components such as, for example, the cell-type, ligand, reference compound and the like, will be familiar to practitioners of such an assay.
(§2) Analysis and Expression of Results: Compounds of the invention were tested in the biochemical assays and percent inhibition of specific binding was determined. The specific ligand binding to the receptors is defined as the difference between the total binding and the nonspecific binding determined in the presence of an excess of unlabelled ligand. The results are expressed as a percent inhibition of control specific binding (100−((measured specific binding/control specific binding)×100)) obtained in the presence of test compounds.

[1] = target: T1, Thyrotropin Releasing Hormone TRH1 (h) (Homo sapiens, UniProt P34981); assay: Binding TRH1 (h) (ag); details: read-out: % Inhibition of Control Specific Binding @ 10 μM
T1 construct: expressed in transfected cells; host or cells: CHO cells
T1 sequence (P34981 1-398): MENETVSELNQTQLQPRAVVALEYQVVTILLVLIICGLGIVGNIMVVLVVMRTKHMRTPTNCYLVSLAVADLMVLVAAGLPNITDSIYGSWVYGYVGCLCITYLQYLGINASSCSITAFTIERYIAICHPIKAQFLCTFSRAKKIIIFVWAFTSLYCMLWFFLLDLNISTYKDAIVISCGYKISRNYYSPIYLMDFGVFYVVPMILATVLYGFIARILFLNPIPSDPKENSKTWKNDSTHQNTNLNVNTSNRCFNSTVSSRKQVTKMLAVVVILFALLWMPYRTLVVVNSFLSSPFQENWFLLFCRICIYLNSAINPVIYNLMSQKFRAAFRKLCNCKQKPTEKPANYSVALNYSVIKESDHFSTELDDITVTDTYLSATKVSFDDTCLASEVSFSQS
Procedure: as §1, §2

guanylyl cyclase (basal) = target: T2, guanylyl cyclase (basal) (Bos taurus, UniProt P16068+P19687); assay: Enzyme assay guanylyl cyclase (basal); format: biochemical, bovine
T2 construct: bovine lung; from tissue; host or cells: bovine lung
T2 sequence (P19687 1-691): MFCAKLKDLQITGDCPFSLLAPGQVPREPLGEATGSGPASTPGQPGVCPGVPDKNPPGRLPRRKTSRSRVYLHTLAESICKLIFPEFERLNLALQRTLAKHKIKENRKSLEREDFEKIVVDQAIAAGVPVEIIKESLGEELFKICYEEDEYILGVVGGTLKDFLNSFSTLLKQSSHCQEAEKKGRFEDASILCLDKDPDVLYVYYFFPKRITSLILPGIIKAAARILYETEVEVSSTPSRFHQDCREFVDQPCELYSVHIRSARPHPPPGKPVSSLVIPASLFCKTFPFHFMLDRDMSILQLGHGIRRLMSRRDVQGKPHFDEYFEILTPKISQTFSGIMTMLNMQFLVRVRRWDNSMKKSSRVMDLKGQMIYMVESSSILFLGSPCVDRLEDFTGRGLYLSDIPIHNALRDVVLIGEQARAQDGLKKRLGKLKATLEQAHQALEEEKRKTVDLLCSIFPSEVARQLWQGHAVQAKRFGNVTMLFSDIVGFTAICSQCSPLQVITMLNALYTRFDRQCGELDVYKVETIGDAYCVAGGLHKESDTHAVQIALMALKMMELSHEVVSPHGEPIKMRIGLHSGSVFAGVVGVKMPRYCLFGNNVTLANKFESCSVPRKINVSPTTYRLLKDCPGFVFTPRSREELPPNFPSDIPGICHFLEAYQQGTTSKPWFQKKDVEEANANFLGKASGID
T2 sequence (P16068 1-619): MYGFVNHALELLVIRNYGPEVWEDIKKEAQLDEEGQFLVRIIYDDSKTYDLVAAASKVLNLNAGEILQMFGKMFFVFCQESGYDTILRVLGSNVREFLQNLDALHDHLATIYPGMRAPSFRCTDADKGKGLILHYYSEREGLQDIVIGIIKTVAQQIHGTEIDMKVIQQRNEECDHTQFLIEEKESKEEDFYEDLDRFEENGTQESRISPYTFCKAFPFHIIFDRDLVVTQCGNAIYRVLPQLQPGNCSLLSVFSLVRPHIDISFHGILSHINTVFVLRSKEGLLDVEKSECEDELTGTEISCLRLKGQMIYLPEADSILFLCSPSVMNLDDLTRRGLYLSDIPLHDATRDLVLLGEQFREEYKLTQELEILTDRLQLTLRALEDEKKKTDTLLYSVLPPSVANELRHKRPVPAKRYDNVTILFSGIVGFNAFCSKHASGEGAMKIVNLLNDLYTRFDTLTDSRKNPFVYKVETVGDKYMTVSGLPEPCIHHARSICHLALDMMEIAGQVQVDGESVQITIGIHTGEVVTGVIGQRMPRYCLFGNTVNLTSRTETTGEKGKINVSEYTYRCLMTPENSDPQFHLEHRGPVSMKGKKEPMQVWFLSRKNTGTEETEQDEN
Text: The enzyme assays provided below will be familiar to those skilled in the art.
Analysis and Expression of Results: The results are expressed as a percent of control specific activity ((measured specific activity/control specific activity)×100) obtained in the presence of the test compounds.

Row | Structure (SMILES) | % Inhibition of Control Specific Binding @ 10 μM (I2) [%] | inhibition at 10 µM [1] [%] | % Stimulation Relative to Control @ 10 μM (guanylyl cyclase (basal)) [%]
1 | CC1(C)C(=O)N(c2ccc(C#N)c(C(F)(F)F)c2)C(=S)N1c1ccc(C(=O)O)c(F)c1 [(MI), 4-(3-(4-cyano-3-(trifluoromethyl)phenyl)-5,5-dimethyl-4-oxo-2-thioxoimidazolidin-1-yl)-2-fluorobenzoic acid] | 28 | 18 | 0
2 | CC1(C)C(=O)N(c2ccc(C#N)c(C(F)(F)F)c2)C(=O)N1c1ccc(C(N)=O)c(F)c1 [(MIII), 4-(3-(4-cyano-3-(trifluoromethyl)phenyl)-5,5-dimethyl-2,4-dioxoimidazolidin-1-yl)-2-fluorobenzamide] | 20 | -5 | −1
3 | CNC(=O)c1ccc(N2C(=O)N(c3ccc(C#N)c(C(F)(F)F)c3)C(=O)C2(C)C)cc1F [(MIV), 4-(3-(4-cyano-3-(trifluoromethyl)phenyl)-5,5-dimethyl-2,4-dioxoimidazolidin-1-yl)-2-fluoro-N-methylbenzamide] | 8 | 0 | 2
4 | CC1(C)C(=O)N(c2ccc(C#N)c(C(F)(F)F)c2)C(=S)N1c1ccc(C(N)=O)c(F)c1 [(MII), 4-(3-(4-Cyano-3-(trifluoromethyl)phenyl)-5,5-dimethyl-4-oxo-2-thioxoimidazolidin-1-yl)-2-fluorobenzamide] | 22 | -4 | 0
